{"source": "patent EP1205473A1", "about": "“VESAMICOL PIPERAZINE DERIVATIVES AND DRUGS CONTAINING THE SAME” (DAIICHI RADIOISOTOPE LABORATORIES, LTD., priority 1999, dated 2001)", "key": {"[1]": {"molecular_target": "T1, vesamicol receptors (Rattus norvegicus, UniProt Q62666)", "T1 sequence (Q62666 1-530)": "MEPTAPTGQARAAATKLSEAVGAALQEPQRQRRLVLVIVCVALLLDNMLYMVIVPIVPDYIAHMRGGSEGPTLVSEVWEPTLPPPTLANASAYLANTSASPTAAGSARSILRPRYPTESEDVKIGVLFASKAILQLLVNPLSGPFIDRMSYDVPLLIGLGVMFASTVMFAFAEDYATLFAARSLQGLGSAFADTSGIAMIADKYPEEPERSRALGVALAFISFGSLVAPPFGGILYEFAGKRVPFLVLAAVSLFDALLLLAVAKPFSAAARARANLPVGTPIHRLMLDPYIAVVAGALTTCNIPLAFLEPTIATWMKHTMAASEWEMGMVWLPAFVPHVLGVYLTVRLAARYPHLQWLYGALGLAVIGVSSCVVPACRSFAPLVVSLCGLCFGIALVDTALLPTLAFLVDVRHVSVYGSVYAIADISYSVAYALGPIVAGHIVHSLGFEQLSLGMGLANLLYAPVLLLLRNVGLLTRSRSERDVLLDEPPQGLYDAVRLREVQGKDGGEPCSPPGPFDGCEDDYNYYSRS", "assay": "Inhibition experiment: inhibition of binding of radioactive-iodine-labeled DRC140 to P2 fractions", "parameters": "Synaptic vesicles were extracted and separated from the brain of a rat; from tissue; host or cells: rat brain without cerebellum: P2, crude synaptic vesicles, purified synaptic vesicles"}, "[2]": {"molecular_target": "T1, vesamicol receptors", "assay": "Inhibition experiment: inhibition of binding of radioactive-iodine-labeled DRC140 to purified synaptic vesicle fractions", "parameters": "Synaptic vesicles were extracted and separated from the brain of a rat; from tissue; host or cells: rat brain without cerebellum: P2, crude synaptic vesicles, purified synaptic vesicles"}}, "data": [{"smiles": "Cc1ccccc1NC(=N)Nc1ccccc1C", "note": "[DTG, reference compound]", "values": [{"measurement": "inhibitive action on P2 fractions", "setting": "[1]", "value": "weak inhibitive action"}, {"measurement": "IC50", "setting": "[1]; IC50 (nM) Average ± S.D", "value": "3820 ± 930", "unit": "nM"}, {"measurement": "IC50", "setting": "[2]", "value": "4.16 ± 0.251", "unit": "µM"}, {"measurement": "inhibitive action on purified synaptic vesicles", "setting": "[2]; result in words", "value": "almost the same degree of weak inhibitive action"}]}]}
